Measured values published in patent US9821077B2, “Diagnostic substances for optical imaging testing on the basis of nanoparticular formulations” (NANOPET PHARMA GMBH, priority 2007, dated 2017).
Values joined by “and” are separate entries in the source; they are usually repeats but may differ in a detail not shown here. Identical values can stand only once.

What was measured:
[1] = Absorption spectra, absorption maximum; assay type: physicochemical; details: dye in water
Procedure: Absorption spectra in a wavelength range of 700 nm to 900 nm were recorded with a UVIKON 933 Spectrophotometer (company Kontron) in the various solvents. →ICG in water λmax=780 nm ICO micelles λmax=797 nm (FIG. 1A)
Absorption spectra were recorded in a wavelength range of 600 nm to 900 nm with a DU®530 Beckman Spectralphotometer in the various solvents. →ICG in water λmax=779 nm ICG-Cithrol 10 MS micelles λmax=800 nm (FIG. 2A)
Absorption spectra were recorded in a wavelength range of 600 nm to 900 nm with a DU®530 Beckman Spectralphotometer in the various solvents. →ICG in water λmax=779 nm ICG-Crodet S40 LD micelles λmax=800 nm (FIG. 3A)
(§1) Absorption spectra were recorded in a wavelength range of 600 nm to 900 nm with a DU®530 Beckman Spectralphotometer in the various solvents. […]
as §1
Absorption spectra were recorded in a wavelength range of 600 nm to 900 nm with a DU®530 Beckman Spectralphotometer in the various solvents. →NW003.5 in water λmax (monomer)=788 nm NW003.5-Solutol® HS 15 micelles λmax=806 nm (FIG. 6B)
Absorption spectra were recorded in a wavelength range of 600 nm to 900 nm with a DU®530 Beckman Spectra'photometer in the various solvents. →IR-783 in water λmax (Monomer)=775 nm IR-783-Solutol® HS 15 micelles λmax=797 nm (FIG. 7B)

[2] = Fluorescence measurements, quantum yield; assay type: physicochemical; details: in water; standard ICG in DMSO
Procedure: Fluorescence measurements were carried out by means of a FluoroLog-2 Spectrofluorometer (350 W Xenon lamp) of the company Spex. For this purpose, emission spectra of 700 nm to 900 nm were recorded. The excitation wavelength corresponded to the respective maximum of the formulation in the absorption spectrum (ICG in water λmax=780 nm and ICG micelles λmax=795 nm). Due to the s & r modus of the software DM 3000, the different lamp intensities of the different excitation wavelengths could be taken into account in the evaluation.
The quantum yield is calculated via the surface area below the emission curve. ICG in DMSO was used as the standard (Φ=0.13).
(§2) Fluorescence measurements were carried out by means of a Spectrofluorometer FP-6500 of the company JASCO. For this purpose, emission spectra of 770 to 900 nm were recorded. […] The quantum yield is calculated via the surface area below the emission curve. […]
as §2, §2

[3] = Stability test, absorption as a function of time; assay type: physicochemical; details: purely aqueous formulation, 0.0005% ICG, room temperature, 7 days
Procedure: For the stability test the absorption in the maximum of the various formulations was measured as a function of time. For this purpose, 0.0005% ICG solutions were prepared and stored at room temperature.
For the stability test the absorption spectra of the various formulations were measured as a function of time.

plasma protein = assay: Plasma protein binding by wavelength shift in the absorption spectrum; assay type: in vitro ADME
From the text: For this purpose, spectra of 700 nm to 900 nm of ICG in water and in plasma were compared with spectra of ICG micelles in water and in plasma.

[4] = in DMSO, used as the standard; cited from earlier work

Row | SMILES | absorption maximum λmax [1] | fluorescence quantum yield Φ [2] | standardized absorption after storage [3] | absorption maximum in plasma (plasma protein) [nm] | fluorescence quantum yield Φ of the standard [4]
1 | CC1(C)C(/C=C/C=C/C=C/C=C2\N(CCCCS(=O)(=O)O)c3ccc4ccccc4c3C2(C)C)=[N+](CCCCS(=O)(=O)[O-])c2ccc3ccccc3c21 [ICG, indocyanine green] | 779 nm and 780 nm | 0.02 | below 10% | 805 | 0.12 and 0.13
2 | CC1(C)C(=CC=C2CCCC(C=CC3=[N+](CCCCS(=O)(=O)[O-])c4ccccc4C3(C)C)=C2Cl)N(CCCCS(=O)(=O)[O-])c2ccccc21.[Na+] [IR-783] | 775 nm | – | – | – | –
